Measured values as given in PubChem BioAssay (NCI).
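48-hour exposure; five concentrations; linearly interpolated endpoints. At the TGI there is no net growth.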

Tests used:
Experiment in all cases: NCI-60 cell line screen, 48 h
NCI-H226 lung = tested on: NCI-H226 lung
SK-MEL-28 melanoma = tested on: SK-MEL-28 melanoma
MOLT-4 leukemia = tested on: MOLT-4 leukemia
A549 NSCLC = tested on: A549 NSCLC
T-47D breast = tested on: T-47D breast
SF-268 CNS = tested on: SF-268 CNS
MALME-3M melanoma = tested on: MALME-3M melanoma
OVCAR-5 ovarian = tested on: OVCAR-5 ovarian
HCC-2998 colon = tested on: HCC-2998 colon
UACC-62 melanoma = tested on: UACC-62 melanoma
HS 578T breast = tested on: HS 578T breast
PC-3 prostate = tested on: PC-3 prostate
IGROV1 ovarian = tested on: IGROV1 ovarian
MDA-MB-231 breast = tested on: MDA-MB-231 breast
MDA-N = tested on: MDA-N
RXF 393 renal = tested on: RXF 393 renal
HOP-62 NSCLC = tested on: HOP-62 NSCLC
LOX IMVI melanoma = tested on: LOX IMVI melanoma
KM12 colon = tested on: KM12 colon
HT29 colon = tested on: HT29 colon
NCI-H23 lung = tested on: NCI-H23 lung
CCRF-CEM leukemia = tested on: CCRF-CEM leukemia
NCI/ADR-RES ovarian = tested on: NCI/ADR-RES ovarian
SF-539 CNS = tested on: SF-539 CNS
SF-295 CNS = tested on: SF-295 CNS
CAKI-1 renal = tested on: CAKI-1 renal
U251 CNS = tested on: U251 CNS
UO-31 renal = tested on: UO-31 renal
MDA-MB-435 = tested on: MDA-MB-435
SW-620 colon = tested on: SW-620 colon
NCI-H522 lung = tested on: NCI-H522 lung
HCT-116 colon = tested on: HCT-116 colon
UACC-257 melanoma = tested on: UACC-257 melanoma
SNB-19 CNS = tested on: SNB-19 CNS
K-562 leukemia = tested on: K-562 leukemia
BT-549 breast = tested on: BT-549 breast
ACHN renal = tested on: ACHN renal
SK-OV-3 ovarian = tested on: SK-OV-3 ovarian
DU-145 prostate = tested on: DU-145 prostate
OVCAR-3 ovarian = tested on: OVCAR-3 ovarian
HL-60(TB) leukemia = tested on: HL-60(TB) leukemia
HCT-15 colon = tested on: HCT-15 colon
OVCAR-8 ovarian = tested on: OVCAR-8 ovarian
SK-MEL-5 melanoma = tested on: SK-MEL-5 melanoma
A498 renal = tested on: A498 renal
EKVX NSCLC = tested on: EKVX NSCLC
HOP-92 NSCLC = tested on: HOP-92 NSCLC
SN12C renal = tested on: SN12C renal
NCI-H460 lung = tested on: NCI-H460 lung
786-0 renal = tested on: 786-0 renal
TK-10 renal = tested on: TK-10 renal
SNB-75 CNS = tested on: SNB-75 CNS
OVCAR-4 ovarian = tested on: OVCAR-4 ovarian
RPMI-8226 leukemia = tested on: RPMI-8226 leukemia
COLO 205 colon = tested on: COLO 205 colon
SR leukemia = tested on: SR leukemia
MCF7 breast = tested on: MCF7 breast
M14 melanoma = tested on: M14 melanoma
SK-MEL-2 melanoma = tested on: SK-MEL-2 melanoma
M19-MEL melanoma = tested on: M19-MEL melanoma
LXFL 529 NSCLC = tested on: LXFL 529 NSCLC
DMS 114 small cell lung = tested on: DMS 114 small cell lung
KM20L2 colon = tested on: KM20L2 colon
HOP-18 NSCLC = tested on: HOP-18 NSCLC
XF 498 CNS = tested on: XF 498 CNS
DLD-1 colon = tested on: DLD-1 colon
DMS 273 small cell lung = tested on: DMS 273 small cell lung
SNB-78 CNS = tested on: SNB-78 CNS

`O=C1OC(OC/C(Br)=C(\Br)COC2OC(=O)C(Cl)=C2Cl)C(Cl)=C1Cl` (stereo not given) showed a TGI (NCI-H226 lung) of 40.8 µM, a TGI (SK-MEL-28 melanoma) of 22.1 µM and a TGI (MOLT-4 leukemia) of 2380 nM. The TGI (A549 NSCLC) was 34.3 µM, the TGI (T-47D breast) was 34.6 µM and the TGI (SF-268 CNS) was 26.8 µM. For the same molecule, the TGI (MALME-3M melanoma) was 9.02 µM, the TGI (OVCAR-5 ovarian) was 30 µM and the TGI (HCC-2998 colon) was 33.7 µM. For the same molecule, the TGI (UACC-62 melanoma) was 16.9 µM, the TGI (HS 578T breast) was 31.7 µM and the TGI (PC-3 prostate) was 27.8 µM. It also gave a TGI (IGROV1 ovarian) of 26.3 µM, a TGI (MDA-MB-231 breast) of 10.3 µM and a TGI (MDA-N) of 14.3 µM. The TGI (RXF 393 renal) was 6.1 µM, the TGI (HOP-62 NSCLC) was 29.5 µM and the TGI (LOX IMVI melanoma) was 8.29 µM. The TGI (KM12 colon) was 55.7 µM, the TGI (HT29 colon) was 9.77 µM and the TGI (NCI-H23 lung) was 14 µM. It also gave a TGI (CCRF-CEM leukemia) of 2340 nM, a TGI (NCI/ADR-RES ovarian) of 25.2 µM and a TGI (SF-539 CNS) of 21.9 µM. It also gave a TGI (SF-295 CNS) of 34.7 µM, a TGI (CAKI-1 renal) of 5.54 µM and a TGI (U251 CNS) of 19 µM. The TGI (UO-31 renal) was 8.12 µM, the TGI (MDA-MB-435) was 21.4 µM and the TGI (SW-620 colon) was 9.9 µM. It also gave a TGI (NCI-H522 lung) of 3.24 µM, a TGI (HCT-116 colon) of 4.56 µM and a TGI (UACC-257 melanoma) of 23.9 µM. It also gave a TGI (SNB-19 CNS) of 34.3 µM, a TGI (K-562 leukemia) of 5.55 µM and a TGI (BT-549 breast) of 6.45 µM. The TGI (ACHN renal) was 13.7 µM, the TGI (SK-OV-3 ovarian) was 43 µM and the TGI (DU-145 prostate) was 28.5 µM. It also gave a TGI (OVCAR-3 ovarian) of 14.5 µM, a TGI (HL-60(TB) leukemia) of 1430 nM and a TGI (HCT-15 colon) of 10.1 µM. For the same molecule, the TGI (OVCAR-8 ovarian) was 13.3 µM, the TGI (SK-MEL-5 melanoma) was 22.3 µM and the TGI (A498 renal) was 34.1 µM. The TGI (EKVX NSCLC) was 22.8 µM, the TGI (HOP-92 NSCLC) was 10.7 µM and the TGI (SN12C renal) was 16.6 µM. It also gave a TGI (NCI-H460 lung) of 33.6 µM, a TGI (786-0 renal) of 6.4 µM and a TGI (TK-10 renal) of 15.2 µM. The TGI (SNB-75 CNS) was 39.4 µM, the TGI (OVCAR-4 ovarian) was 19.3 µM and the TGI (RPMI-8226 leukemia) was 3.94 µM. The TGI (COLO 205 colon) was 4.11 µM, the TGI (SR leukemia) was 2160 nM and the TGI (MCF7 breast) was 25.4 µM. The TGI (M14 melanoma) was 10.4 µM and the TGI (SK-MEL-2 melanoma) was 35.9 µM.
`NC(=O)NNC/C(Cl)=C(\Cl)C(=O)O` gave a TGI (NCI-H226 lung) of over 100 µM, a TGI (SK-MEL-28 melanoma) of over 100 µM and a TGI (MOLT-4 leukemia) of over 100000 nM. For the same molecule, the TGI (A549 NSCLC) was over 100 µM, the TGI (SF-268 CNS) was over 100 µM and the TGI (MALME-3M melanoma) was over 100 µM. The TGI (OVCAR-5 ovarian) was over 100 µM, the TGI (HCC-2998 colon) was over 100 µM and the TGI (UACC-62 melanoma) was over 100 µM. It also gave a TGI (IGROV1 ovarian) of over 100 µM, a TGI (RXF 393 renal) of over 100 µM and a TGI (HOP-62 NSCLC) of over 100 µM. It also gave a TGI (M19-MEL melanoma) of over 100 µM, a TGI (LOX IMVI melanoma) of over 100 µM and a TGI (KM12 colon) of over 100 µM. The TGI (HT29 colon) was over 100 µM, the TGI (NCI-H23 lung) was over 100 µM and the TGI (CCRF-CEM leukemia) was over 100000 nM. For the same molecule, the TGI (SF-539 CNS) was over 100 µM, the TGI (SF-295 CNS) was over 100 µM and the TGI (CAKI-1 renal) was over 100 µM. For the same molecule, the TGI (U251 CNS) was over 100 µM, the TGI (UO-31 renal) was over 100 µM and the TGI (SW-620 colon) was over 100 µM. It also gave a TGI (NCI-H522 lung) of over 100 µM, a TGI (HCT-116 colon) of over 100 µM and a TGI (UACC-257 melanoma) of over 100 µM. The TGI (SNB-19 CNS) was over 100 µM, the TGI (K-562 leukemia) was over 100 µM and the TGI (ACHN renal) was over 100 µM. For the same molecule, the TGI (LXFL 529 NSCLC) was over 100 µM, the TGI (SK-OV-3 ovarian) was over 100 µM and the TGI (OVCAR-3 ovarian) was over 100 µM. The TGI (HL-60(TB) leukemia) was over 100000 nM, the TGI (HCT-15 colon) was over 100 µM and the TGI (OVCAR-8 ovarian) was over 100 µM. It also gave a TGI (DMS 114 small cell lung) of over 100 µM, a TGI (SK-MEL-5 melanoma) of over 100 µM and a TGI (A498 renal) of over 100 µM. It also gave a TGI (EKVX NSCLC) of over 100 µM, a TGI (SN12C renal) of over 100 µM and a TGI (NCI-H460 lung) of over 100 µM. For the same molecule, the TGI (KM20L2 colon) was over 100 µM, the TGI (HOP-18 NSCLC) was over 100 µM and the TGI (786-0 renal) was over 100 µM. For the same molecule, the TGI (TK-10 renal) was over 100 µM, the TGI (SNB-75 CNS) was over 100 µM and the TGI (OVCAR-4 ovarian) was over 100 µM. For the same molecule, the TGI (XF 498 CNS) was over 100 µM, the TGI (DLD-1 colon) was over 100 µM and the TGI (RPMI-8226 leukemia) was over 100 µM. The TGI (COLO 205 colon) was over 100 µM, the TGI (DMS 273 small cell lung) was over 100 µM and the TGI (SNB-78 CNS) was over 100 µM. For the same molecule, the TGI (M14 melanoma) was over 100 µM and the TGI (SK-MEL-2 melanoma) was over 100 µM.
